# According to patent US5654321A, “2-chloro-3-arylamino-1,4-naphthoquinone derivatives, process for preparation thereof and use thereof as an agent for inhibiting platelet aggregation” (Dong Kook Pharmaceutical Co. Ltd., priority 1996, dated 1997):
# pIC50: −log10 of the molar value. Entries after “also recorded” stand apart in the source; their conditions may differ. Read-outs that look alike come from different tables or passages of the source.
# Columns and labels:
# human platelet = settings: Blackwell et al., Thromb. Res. 37, 103-114, 1985; cited from earlier work
# rabbit platelet = settings: Ko et al., Thromb. Res. 57, 453-463, 1990; cited from earlier work
# washed platelet [1] = test: Excretion of lactic acid dehydrogenase (LDH) from platelets, cytotoxicity; format: cell-based, rat; settings: for Concentration of LDH: NQ-Y15 0.1 mM, Triton X-100 0.1%
# From the text: Lactic acid dehydrogenase (LDH) is an enzyme present in cytoplasm of platelets and is excreted from platelet cytoplasm into extracellular fluid when platelet membrane is injured or cytotoxicity such as cytolysis is induced. Accordingly, it was intended to identify whether the compound of the present invention induces the cytotoxicity by quantitatively measuring lactic acid dehydrogenase excreted after the pre-treatment with the compound of the present invention.
# To the washed platelet, dimethylsulfoxide(DMSO) (control group) which can dissolve the compound, NQ-Y15, of the present invention, NQ-Y15 or Triton X-100 (0.1%) which can disrupt the cellular membrane was added. Then, this mixture was centrifuged under 12,000×g at room temperature for 2 minutes to separate the supernatant. To the separated supernatant was added a reagent for measuring lactic acid dehydrogenase LD-L10^R (Sigma) and then the excreted lactic acid dehydrogenase was quantitatively analyzed by means of an automated clinical chemistry analyzer SBA300 (Gilford) which can automatically quantitate lactic acid dehydrogenase.
# washed platelet [2] = test: Inhibition of platelet aggregation induced by platelet agonists (aggregometer, light transmission, method of Born); format: cell-based, rat; settings: for pIC50: washed platelet, 37° C., read-out: concentration by which the platelet aggregation induced by agonists is reduced by 50%
# Description: Blood was taken from abdominal aorta of rat using a syringe in which sodium citrate (final content 0.38%) was previously filled, and centrifuged under 160×g at room temperature for 15 minutes to obtain the platelet rich plasma as the supernatant. This platelet rich plasma was centrifuged again under 1500×g for 15 minutes to obtain the precipitate which was then washed three times with a washing buffer solution (129 mM sodium chloride, 0.8 mM dipotassium hydrogenphosphate, 8.9 mM sodium carbonate, 2.8 mM potassium chloride, 0.8 mM magnesium chloride, 5.6 mM glucose, 10 mM N-[2-hydroxyethyl]-piperazine-N'-[2-ethanesulfonic acid], acidity pH 7.4) containing 2 mM ethylenediamine tetraacetic acid to remove protein and calcium from the plasma. This […] was then carefully re-suspended in a modified Tyrode's buffer solution (129 mM sodium chloride, 0.8 mM dipotassium hydrogenphosphate, 8.9 mM sodium carbonate, 2.8 mM potassium chloride, 0.8 mM magnesium chloride, 5.6 mM glucose, 10 mM N-[2-hydroxyethyl]piperazine-N-'-[2-ethanesulfonic acid], acidity pH 7.4) containing 0.35% bovine serum albumin to obtain the washed platelet.
# In this experiment, the platelet aggregation ability was determined by measuring a change in light transmission depending on turbidity change by means of an apparatus for measuring platelet aggregation ability (Chronolog Co.: Pennsylvania, Harvertown) according to a method of Born (see, Born, G. V. R., Nature, 194, 927, 1962). As the control, the light transmission degree for the plasma having substantially no platelet was used. 495 μl of the platelet rich plasma prepared in the above (1) was added to a cuvette for aggregometer, which has a silicon-treated surface. This cuvette was pre-treated by inserting it into a cuvette channel which is maintained at 37° C. and retaining for 30 seconds. Then, 2.5 μl of the compound according to the present invention, NQ-Y15 (final concentration 10^-4 M), dissolved in dimethylsulfoxide was added to the cuvette. The reaction was conducted again at 37° C. for 8 minutes. Then, the change in light transmission developed by adding 2.5 μl of thrombin (final concentration 0.5U/ml) thereto was measured for 10 minutes.
# In addition, 495 μl of the washed platelet prepared in the above (1) was pre-treated for 30 seconds at 37° C. according to the same procedure as above and then 2.5 μl of the compound according to the present invention, NQ-Y15, dissolved in dimethylsulfoxide was added thereto. This mixture was allowed to react for 8 minutes at 37° C. Then, 2.5 μl of the platelet agonist (thrombin 0.1U/ml, collagen 10 μg/ml or calcium ionophore A23187 having the following formula 2 μM) was added to the reaction mixture to induce the platelet aggregation and then the change in light transmission was measured for 10 minutes. In this experiment, the light transmission degree for Tyrode's buffer solution was used as the control. [drawing 7]
# The result was determined by calculating the relative ratio of the light transmission degree obtained in each case to the light transmission degree obtained from treatment only with platelet agonists, which is regarded as 100% aggregation.
# [3] = system: [14C]-serotonin-loaded platelet (washed platelet); test: Inhibition of 5-[14C]-serotonin secretion from agonist-activated platelets; format: cell-based, rat
# From the text: Contrary to other cells, platelets contain numerous granules such as dense granule, α-granule, lysosome and peroxisome, each of which preserves very useful physiological substances. When platelet is activated by any stimulus, substances contained in granules are secreted out of the cells through exocytosis. Particularly, dense granule contains adenine nucleotides such as adenosine diphosphate (ADP), adenosine triphosphate (ATP), etc, calcium, serotonin, etc., which are secreted upon aggregation of platelets and then cause irreversible secondary aggregation. Thus, it can be said that irreversible secondary aggregation induced by ADP, thrombin, etc. is the result of such granule secretion. […]
# The inhibitory activity of the compound of the present invention against serotonin secretion was determined using [^14 C]-serotonin-loaded platelet according to the method of Huzoor, et. al. (see, Huzoor-Akbar, Patel, S., Kokrady, S., Witiak, D. T., Newman, H. A. I. and Feller, D. R., Biochem. Pharmacol. 30, 2013-2020, 1981). […] This mixture was then centrifuged under 12,000×g at room temperature for 2 minutes to separate the supernatant from which the radioactivity of 5-[^14 C]-serotonin was measured.
# [4] = system: washed platelet (thromboxane B2 synthesis); test: Inhibition of thromboxane A2 production (thromboxane B2 by radioimmunoassay) in collagen-activated platelets; format: cell-based, rat; settings: for Thromboxane B2: DMSO + collagen 98.44 ± 11.52, DMSO + saline 0.82 ± 0.22
# Description: The ability of producing thromboxane A2 was determined as follow according to the method described in literature [see, Ko, F. N., Sheu, S. J., Liu, Y. M., Huang, T. F., and Teng, C. M., Inhibition of rabbit platelet aggregation by 1,4-naphthoquinones, Thromb. Res. 57, 453-463, 1990]. The experiment was conducted in a plastic cuvette containing 0.5 ml of the washed platelet (3×10^8 platelet/ml) while maintaining the temperature at 37° C. First, the washed platelet was pre-treated with the compound of the present invention, NQ-Y15, for 8 minutes and then collagen was added thereto. After incubation for 5 minutes, the reaction was allowed to stop by adding 2 mM ethylenediamine tetraacetic acid and 50 μM indomethacin. This mixture was centrifuged under 12,000×g at room temperature for 2 minutes to separate the supernatant which was then stored at -20° C. Since thromboxane A2 has a unstable structure and therefore, is immediately converted into a stable thromboxane B2, the production of thromboxane B2 as an index for the thromboxane A2 production was measured by radioimmunoassay.
compound,measurement,setting,value
"CC1=CC(=O)c2ccccc2C1=O [vitamin K3, menadione]",inhibition of platelet aggregation in human being (in words),human platelet,has an effect on inhibition of platelet aggregation in human being
"CC1=C(Cl)C(=O)c2ccccc2C1=O [2-chloro-3-methyl-1,4-naphthoquinone]",inhibition of platelet aggregation in rabbit (in words),rabbit platelet,inhibits the platelet aggregation in rabbit
"N#Cc1ccc(NC2=C(Cl)C(=O)c3ccccc3C2=O)cc1 [NQ-Y15, 2-chloro-3-[(4-cyanophenyl)-amino]-1,4-naphthoquinone]",Concentration of LDH,"washed platelet [1]; 0 min, DMSO 6.13 ± 1.13",2.87 ± 0.12 U/L
same,LDH excretion versus control group / cytotoxicity (in words),"washed platelet [1]; 0.1 mM, pre-treated for 120 minutes",does not show any significant difference from the control group; also recorded: does not cause a cytotoxicity even at high concentration
same,Concentration of LDH,"washed platelet [1]; 10 min, DMSO 5.73 ± 2.54",4.57 ± 1.05 U/L
same,Concentration of LDH,"washed platelet [1]; 20 min, DMSO 8.25 ± 1.85",5.47 ± 0.52 U/L
same,Concentration of LDH,"washed platelet [1]; 40 min, DMSO 9.77 ± 1.37",8.47 ± 0.43 U/L
same,Concentration of LDH,"washed platelet [1]; 80 min, DMSO 12.20 ± 1.74",11.55 ± 0.05 U/L
same,Concentration of LDH,"washed platelet [1]; 120 min, DMSO 14.83 ± 1.39",16.67 ± 1.24 U/L
same,pIC50,"washed platelet [2]; Rattus norvegicus, Platelet, A23187 2 μM, 8 min pre-treatment (FIG. 3)",~4.00
same,pIC50,"washed platelet [2]; Rattus norvegicus, Platelet, collagen 10 μg/ml, 8 min pre-treatment (FIG. 2)",~5.15
same,pIC50,"washed platelet [2]; Rattus norvegicus, Platelet, thrombin 0.1U/ml, 8 min pre-treatment (FIG. 1)",~4.42
same,IC100,"washed platelet [2]; Rattus norvegicus, Platelet, agonist not stated, read-out: concentration to completely inhibit the platelet aggregation",100 µM
same,inhibition of platelet aggregation induced by platelet agonists (in words),"washed platelet [2]; thrombin, collagen and A23187, FIGS. 1 to 3",inhibits the platelet aggregation induced by platelet agonists dependent upon its concentration
same,inhibition of serotonin secretion increased by collagen (in words),"[3]; collagen, within concentration range inhibiting platelet aggregation (FIG. 5)",inhibits the serotonin secretion
same,inhibition of serotonin secretion increased by thrombin (in words),"[3]; thrombin, within concentration range inhibiting platelet aggregation (FIG. 4)",inhibits the serotonin secretion increased by thrombin
same,Thromboxane B2,[4]; NQ-Y15 10 μM + collagen,78.33 ± 11.85 ng/mL
same,Thromboxane B2,[4]; NQ-Y15 30 μM + collagen,15.30 ± 2.84 ng/mL
same,Thromboxane B2,[4]; NQ-Y15 50 μM + collagen,8.50 ± 1.81 ng/mL
same,inhibition at 30 µM,"[4]; Rattus norvegicus, Platelet, 30 μM, read-out: inhibitory effect on the increase in thromboxane A2 production induced by collagen",15.5%
same,inhibition at 50 µM,"[4]; Rattus norvegicus, Platelet, 50 μM, read-out: inhibitory effect on the increase in thromboxane A2 production induced by collagen",86.3%
Triton X-100 [reference compound],Concentration of LDH,"washed platelet [1]; 0 min, DMSO 6.13 ± 1.13",426.40 ± 9.64 U/L
same,Concentration of LDH,"washed platelet [1]; 10 min, DMSO 5.73 ± 2.54",443.07 ± 1.27 U/L
same,Concentration of LDH,"washed platelet [1]; 20 min, DMSO 8.25 ± 1.85",444.93 ± 4.97 U/L
same,Concentration of LDH,"washed platelet [1]; 40 min, DMSO 9.77 ± 1.37",442.20 ± 0.87 U/L
same,Concentration of LDH,"washed platelet [1]; 80 min, DMSO 12.20 ± 1.74",443.73 ± 0.37 U/L
same,Concentration of LDH,"washed platelet [1]; 120 min, DMSO 14.83 ± 1.39",443.30 ± 2.53 U/L
